Measurements reported in patent US20190086432A1, “SYSTEMS AND METHODS RELATED TO HUMAN NON-INVASIVE DRUG TESTING” (priority 2017, published 2019).

Legend:
physchem = details: pH 9.5, aqueous buffer
[1] = people driving; similar to 0.08 breath alcohol; cited from earlier work
[2] = sustained abstinence in chronic frequent smokers; cited from earlier work

SMILES | solubility (physchem) | blood concentration showing increased weaving within the lane [1] | time residual THC can be detected in blood [2]
COc1cc(NS(C)(=O)=O)ccc1N [OX0245] | ≥ 1000 µg/mL | – | –
CCCCCc1cc(O)c2c(c1)OC(C)(C)[C@@H]1CCC(C)=C[C@@H]21 [THC, Δ-9-tetrahydrocannabinol] | – | 13.1 µg/L | up to a month
